Experiment: Storage stability of the rapamycin derivative (bulk, in glass bottle), percent residual by HPLC
Assay type: physicochemical
Experimental: A biologically/physiologically active substance and a deoxidant were placed and sealed within a package. After stored at 40° C. for four weeks, the remaining amount of the biologically/physiologically active substance was measured by high speed liquid chromatography (HPLC) to determine its percent residue.
Biologically/physiologically active substance: A rapamycin derivative represented by the following chemical formula (I) (product of Nippon Kayaku Co., Ltd.). An aliquot (0.03 g) of the rapamycin derivative was placed in a glass bottle, and further, the glass bottle was placed within the below-described package.
Deoxidant: “ZH-100” (product of Mitsubishi Gas Chemical Co, Inc.). Two bags, the volume of each bag being sufficient for 100 mL, were placed and sealed within the package.
Package: An aluminum pouch in the form of a bag of a size of 300 mm in length, 300 mm in width and 0.1 mm in thickness, which was formed of a stacked structure of polyethylene terephthalate, low-density polyethylene, an aluminum film, low-density polyethylene and high-density polyethylene as materials.
After stored in the above-described state at 40° C. for four weeks, the biologically/physiologically active substance was taken out of the package and was provided as “Sample A1” for HPLC. […]
By the following equation, the percent residual of the rapamycin derivative in Sample A1 was determined. […]

Percent residual (%) (stored in air at 40° C. for four weeks) | Percent residual (%) (sealed with deoxidant ZH-100 in aluminum pouch, stored at 40° C. for four weeks) | SMILES
18.2% | – | CCOCCOC1CCC(CC(C)C2CC(=O)C(C)C(O)C(C)C(O)C(OC)C(=O)C(C)CC(C)/C=C/C=C/C=C(\C)C(OC)CC3CCC(C)C(O)(O3)C(O)C(=O)N3CCCCC3C(=O)O2)CC1OC (centres unmarked) [Comparative Example 1]
– | 97.3% | CCOCCOC1CCC(CC(C)C2CC(=O)C(C)C(O)C(C)C(O)C(OC)C(=O)C(C)CC(C)/C=C/C=C/C=C(\C)C(OC)CC3CCC(C)C(O)(O3)C(O)C(=O)N3CCCCC3C(=O)O2)CC1OC (centres unmarked) [Example 1]
